Measured values from US10238688B2, “Combination therapies for bladder cancer” (GENEDIA BIOTECH CO. LTD., priority 2015, dated 2019).

Columns and labels:
5637 = test: MTT cell survival / IC50, 5637 cells; format: cell-based, human
Procedure: (§1) The clinical grade of the chemotherapeutics (NCI Dictionary of Cancer Terms) was provided by the First Affiliated Hospital of Harbin Medical University: Pirarubicin (Pi, Wanle, Shenzhen), Paclitaxel (Pa, Taiji, Sichuan), Adriamycin (Ad, Pfizer, Jiangsu), Epirubicin Hydrochloride (EH, Haizheng, Zhejiang), Hydroxycamptothecin (Hy, Lishizhen, Hubei), Cisplatin (Ci, Haosen, Jiangsu), Gemcitabine (Ge, Haosen, Jiangsu) and Mitomycin (Mi, Haizheng, Zhejiang). The drug induced cell death was determined by a thiazolyl […] (MTT, 490 nm reading) based cell proliferation assay in the cultured cells following treatment by various concentrations of drugs for 72 hours. The relative chemoresistance to each drug of all cell lines was calculated with the lowest IC50 as a reference. The overall chemoresistance of each cell line was described as “chemoresistance index”, the numerator of the total relative IC50 to all the drugs over the number of drugs to rank the overall resistance state of each cell line to the six chemotherapeutics collectively.
(§2) The relative IC50 (fold) of each drug of all nine cell lines was normalized to the lowest IC50 in the most sensitive cell line (FIG. 2G), to describe the single drug resistance of cell lines. The overall chemoresistance of each cell line, a “chemoresistance index” (the numerator of the total relative IC50 over the number of drugs) (FIG. 2G) were calculated to rank the overall resistance state of each cell line to this six chemotherapeutics.
Twenty six-drug combinations at the indicated doses were initially generated through a random number generator (using MATLAB MathWorks©, Natick, Mass., U.S.) (The upper half of Table 1). The cell survival (% over the not drug control) of treated cells was determined and then used for a calculation of the average cumulative cell survival (%, ACS: the sum of cell survival (%) per combination divided by the number of cell lines tested). ACS<30% was used to separate the effective from the not-effective combinations.

SV-HUC-1 = format: cell-based
Procedure: as §1, §2

[1] = test system: DNA Damage response pathway; test: Cignal Finder dual-luciferase pathway reporter, DNA Damage response (5637, Biu87, UM-UC-3, H-bc, SV-HUC-1); format: cell-based, human; parameters: key to Relative activity, DNA Damage reporter: firefly/renilla ratio, background (negative control) subtracted; settings: for Relative activity, DNA Damage reporter: luc/Renluc relative to negative control reporter, single drug at 4 folds vs EH/Ci/Mi combination
Procedure: The pathway analysis was performed with Qiagen's Cignal Finder Pathway Reporter Array systems according to the manufacturer's instructions. The pathway-focused dual-luciferase reporter construct was a mixture of an inducible transcription factor responsive firefly luciferase reporter and constitutively expressing renilla construct. Transcriptional response element (TRE) sequence response elements to each specific transcriptional factor triggered by the different signaling pathways are positioned before the TATA box of firefly luciferase reporter gene. The extent of activity of the reporter reflects the level of activity of the particular signaling pathway. CMV controlled renilla expression vector is co-transfected into the cell as an internal control. Non-inducible reporter construct that lacks the transcriptional factor binding sequence and could not be induced by any transcription factors is used as a negative control. Cells transfected with CMV directed firefly luciferase reporter gene serve as a positive control. Briefly, cells seeded in 6-well plates were transfected with Cignal finder pathway arrays according to the manufacturer's instructions (Qiagen). Then cells were seeded onto 96-well plates. […] After 6 h of incubation with the different drugs at 37° C., cells were lysed and a dual luciferase assay (for firefly and renilla luciferase) was performed using a PromegaGloMax 20/20 illuminometer. The firefly luciferase activities were normalized over the renilla luciferase activities after background activity determined by luciferase activities of negative controls was subtracted. A triple test of cell survival under these drug doses was also performed by MTT assay following 18 h incubation at 37° C. […]

Hypoxia pathway = test: Cignal Finder dual-luciferase pathway reporter, Hypoxia; format: cell-based, human; parameters: key to Relative activity, Hypoxia reporter: firefly/renilla ratio, background (negative control) subtracted; settings: for Relative activity, Hypoxia reporter: luc/Renluc relative to negative control reporter, single drug at 4 folds vs EH/Ci/Mi combination
Procedure: (§3) The pathway analysis was performed with Qiagen's Cignal Finder Pathway Reporter Array systems according to the manufacturer's instructions. The pathway-focused dual-luciferase reporter construct was a mixture of an inducible transcription factor responsive firefly luciferase reporter and constitutively expressing renilla construct. Transcriptional response element (TRE) sequence response elements to each specific transcriptional factor triggered by the different signaling pathways are positioned before the TATA box of firefly luciferase reporter gene. The extent of activity of the reporter reflects the level of activity of the particular signaling pathway. CMV controlled renilla expression vector is co-transfected into the cell as an internal control. Non-inducible reporter construct that lacks the transcriptional factor binding sequence and could not be induced by any transcription factors is used as a negative control. Cells transfected with CMV directed firefly luciferase reporter gene serve as a positive control. Briefly, cells seeded in 6-well plates were transfected with Cignal finder pathway arrays according to the manufacturer's instructions (Qiagen). Then cells were seeded onto 96-well plates. Ci (6000 ng/mL), Mi (800 ng/mL), or EH (1000 ng/mL) and Ci/Mi/EH combination (Ci, 1500 ng/mL, Mi, 800 ng/mL and EH, 1000 ng/m L) were then added to the cells 24 h post-transfection. After 6 h of incubation with the different drugs at 37° C., cells were lysed and a dual luciferase assay (for firefly and renilla luciferase) was performed using a PromegaGloMax 20/20 illuminometer. The firefly luciferase activities were normalized over the renilla luciferase activities after background activity determined by luciferase activities of negative controls was subtracted. A triple test of cell survival under these drug doses was also performed by MTT assay following 18 h incubation at 37° C. […]

ER Stress pathway = test: Cignal Finder dual-luciferase pathway reporter, ER Stress; format: cell-based, human; settings: for Relative activity, ER Stress reporter: luc/Renluc relative to negative control reporter, single drug at 4 folds vs EH/Ci/Mi combination
Procedure: as §3

Compound: COC12C(COC(N)=O)C3=C(C(=O)C(C)=C(N)C3=O)N1CC1NC12 (stereo not drawn) [Mi, [6-Amino-8a-methoxy-5-methyl-4,7-dioxo-1,1a,2,4,7,8,8a,8b-octahydroazireno [2′,3′:3,4]pyrrolo[1,2-a]indol-8-yl]methyl carbamate]
- Cell survival (%) (5637; 5637, Table S3, ng/ml: Pi 40, Pa 160, EH 250, Ci 1500, Mi 200, 1=Ci/Mi, 2=EH/Ci/Mi, 3=Pa/Ci/Mi, 4=Pi/Ci/Mi): 53.16%
- Single drug 4X Cell Survival (%) (5637; 5637, ng/ml: EH 1000, Ci 6000, Mi 800, Pi 160, Pa 640, Ge 20, EH/Ci/Mi regimen): 35.46%
- Cell survival 72 hours (5637; 5637 cells, Table 4 (A)): 35.46%
- ACS (%) (5637; 5637 cells, Table 4 (B)): 35.46%
- Single drug 4X Cell Survival (%) (SV-HUC-1; SV-HUC-1, ng/ml: EH 1000, Ci 6000, Mi 800, Pi 160, Pa 640, Ge 20, EH/Ci/Mi regimen): 91.17%
- Cell survival 72 hours (SV-HUC-1; SV-HUC-1 cells, Table 4 (A)): 91.17%
- ACS (%) (SV-HUC-1; SV-HUC-1 cells, Table 4 (B)): 91.17%
- relative drug trigged pathway activity over the no-drug level, DNA Damage ([1]; 5637 cells): 2.87 fold
- Relative activity, DNA Damage reporter ([1]; 5637 cells): 0.63
- digitalized pathway activity, DNA Damage ([1]; Biu87 cells): 0 (null (0) if neither of the above holds)
- relative drug trigged pathway activity over the no-drug level, DNA Damage ([1]; Biu87 cells): 1.35 fold
- Relative activity, DNA Damage reporter ([1]; Biu87 cells): 2.03
- digitalized pathway activity, DNA Damage ([1]; H-bc cells): 0 (null (0) if neither of the above holds)
- relative drug trigged pathway activity over the no-drug level, DNA Damage ([1]; H-bc cells): 1.08 fold
- Relative activity, DNA Damage reporter ([1]; H-bc cells): 0.73
- relative drug trigged pathway activity over the no-drug level, DNA Damage ([1]; SV-HUC-1 cells): 1.75 fold
- Relative activity, DNA Damage reporter ([1]; SV-HUC-1 cells): 4.20
- digitalized pathway activity, DNA Damage ([1]; UM-UC-3 cells): 0 (null (0) if neither of the above holds)
- Relative activity, DNA Damage reporter ([1]; UM-UC-3 cells): 4.77
- relative drug trigged pathway activity over the no-drug level, DNA Damage ([1]; Um-Uc-3 cells): 1.37 fold
- relative drug trigged pathway activity over the no-drug level, Hypoxia (Hypoxia pathway; 5637 cells): 3.31 fold
- Relative activity, Hypoxia reporter (Hypoxia pathway; 5637 cells): 75.18
- relative drug trigged pathway activity over the no-drug level, Hypoxia (Hypoxia pathway; Biu87 cells): 3.56 fold
- Relative activity, Hypoxia reporter (Hypoxia pathway; Biu87 cells): 26.99
- digitalized pathway activity, Hypoxia (Hypoxia pathway; H-bc cells): 0 (null (0) if neither of the above holds)
- relative drug trigged pathway activity over the no-drug level, Hypoxia (Hypoxia pathway; H-bc cells): 0.58 fold
- Relative activity, Hypoxia reporter (Hypoxia pathway; H-bc cells): 20.08
- relative drug trigged pathway activity over the no-drug level, Hypoxia (Hypoxia pathway; SV-HUC-1 cells): 2.08 fold
- Relative activity, Hypoxia reporter (Hypoxia pathway; SV-HUC-1 cells): 52.50
- digitalized pathway activity, Hypoxia (Hypoxia pathway; UM-UC-3 cells): 0 (null (0) if neither of the above holds)
- Relative activity, Hypoxia reporter (Hypoxia pathway; UM-UC-3 cells): 45.95
- relative drug trigged pathway activity over the no-drug level, Hypoxia (Hypoxia pathway; Um-Uc-3 cells): 0.73 fold
- relative drug trigged pathway activity over the no-drug level, ER Stress (ER Stress pathway; 5637 cells): 3.2 fold
- Relative activity, ER Stress reporter (ER Stress pathway; 5637 cells): 83.09
- relative drug trigged pathway activity over the no-drug level, ER Stress (ER Stress pathway; Biu87 cells): 1.65 fold
- Relative activity, ER Stress reporter (ER Stress pathway; Biu87 cells): 36.14
- relative drug trigged pathway activity over the no-drug level, ER Stress (ER Stress pathway; H-bc cells): 1.97 fold
- Relative activity, ER Stress reporter (ER Stress pathway; H-bc cells): 44.48
- relative drug trigged pathway activity over the no-drug level, ER Stress (ER Stress pathway; SV-HUC-1 cells): 1.51 fold
- Relative activity, ER Stress reporter (ER Stress pathway; SV-HUC-1 cells): 155.20
- Relative activity, ER Stress reporter (ER Stress pathway; UM-UC-3 cells): 109.59
- relative drug trigged pathway activity over the no-drug level, ER Stress (ER Stress pathway; Um-Uc-3 cells): 1.34 fold
